Assay results taken from US9394299B2, “Rilyazine derivatives and compositions for the treatment of cancer” (Warner Babcock Institute for Green Chemistry, LLC, priority 2013, dated 2016).

How the values were obtained:
SN12C (Renal Cancer) = assay: NCI single point 10 μM, SN12C; assay type: cell-based, human; settings: 10^−5 M
Procedure: The screening is a two-stage process, beginning with the evaluation of all compounds against 60 cell lines at a single dose of 10^−5 M.
(§1) The human tumor cell lines of the cancer screening panel are grown in RPMI 1640 medium containing 5% fetal bovine serum and 2 mM L-glutamine. Cells are inoculated into 96 well microtiter plates in 100 μL at plating densities ranging from 5,000 to 40,000 cells/well depending on the doubling time of individual cell lines. After cell inoculation, the microtiter plates are incubated at 37° C., 5% CO2, 95% air and 100% relative humidity for 24 h prior to addition of experimental drugs. […]
(§2) Following drug addition, the plates are incubated for an additional 48 h at 37° C., 5% CO2, 95% air, and 100% relative humidity. […] Bound stain is subsequently solubilized with 10 mM trizma base, and the absorbance is read on an automated plate reader at a wavelength of 515 nm. […]
For the 1-dose 60 cell testing, the Growth Percent is calculated for each cell line/drug combination from the absorbance measurement for the no-drug control (C), the absorbance at time zero (Tz) and the absorbance measurement after incubation of the cells in the presence of drug (Ti): Growth Percent=[(Ti−Tz)/(C−Tz)]×100 for cell line/drug combinations for which Ti≧Tz. […]

[1] = system: NCI-H322M (non-small cell lung cancer); assay: NCI five point dosing, NCI-H322M; assay type: cell-based, human
Procedure: (§3) RL-4 was evaluated against the 60 cell panel at five concentration levels, 10^−8 M, 10^−7 M, 10^−6 M, 10^−5 M and 10^−4 M.
as §1, §2
(§4) The percentage growth is calculated at each of the five drug concentrations levels using the seven absorbance measurements, namely absorbance at time zero (Tz), absorbance of control after incubation (C), and absorbance of test sample after incubation in the presence of drug at each of the five concentration levels (Ti). The Growth Percent is calculated as it was for the 1 dose assay: Growth Percent=[(Ti−Tz)/(C−Tz)]×100 for cell line/drug combinations for which Ti≧Tz. […]

MCF-7 cells = assay: MTT cell proliferation assay, MCF-7; assay type: cell-based; settings: 72 h-exposure, 30-0.041 μM
Procedure: In vitro characterizing of the effects of rilyazine analogs on cell proliferation and apoptosis in the paired epithelial/mesenchymal lines (Colo205/Colo-R, DLD/DLD-SNAIL and MCF7/MCF7-WISP) was performed in an independent laboratory.
The Dose Preparation is based on a reconstitute in DMSO. The Concentration of the stock solution is 100 mM. Storage of the stock solution is under −80° C.
Working drug solution of rilyazine analogs: A stock solution of 100 mM OTX015 in DMSO was prepared and stored at −80° C. For growth inhibition studies, dilution series were prepared by (1) diluting stock solution into DMSO, then (2) diluting 1:300 in culture medium supplemented with 10% FBS giving a final concentration in 0.3% DMSO in the 96-well plates.
Cell lines. Cells lines were maintained in RPMI 1640 (PAA Laboratories, France) supplemented with 10% fetal bovine serum (FBS; PAA Laboratories, France), 2 mM glutamine (PAA Laboratories, France), 100 units/ml penicillin and 100 μg/ml streptomycin (PAA Laboratories, France). Cells were free of Mycoplasma.
Proliferation assays. Cell proliferation was determined using the MTT assay (3-[4,5-dimethylthiazol-2-yl]-2,5-diphenyltetrazolium bromide; Sigma-Aldrich, St. Louis, Mo.). […] After incubation, the supernatant was discarded, the cell pellet was resuspended in 0.1 mL DMSO, and the absorbance was measured at 560 nm using a microplate reader (Thermo, France). […]

MCF7 (Breast Cancer) = assay: NCI five point dosing, MCF7; assay type: cell-based; settings: Homo sapiens
Procedure: as §3, §1, §2, §4

SMILES: S=c1c2ncccc2c(-c2ccccn2)nn1C1CCCCC1 [RL-4, 7-cyclohexyl-5-(pyridin-2-yl)pyrido[2,3-d]pyridazine-8(7H)-thione]
- Growth Percent (SN12C (Renal Cancer)): 95.87%
- Growth Percent ([1]; 10^−4 M dose): 60%
- GI50 ([1]; Homo sapiens, five point dosing): > 100000 nM
- anti-proliferative effects (in words) (MCF-7 cells): dose-dependent anti-proliferative effects
- GI50 (MCF7 (Breast Cancer)): 353 nM
